A short description of experiment [1]: general mammalian cell viability loss – inhibitor set, cherry-pick, set 2, cytotoxicity control for miR-122 modulator project, dose response (AID 720697). The experiment is classed as functional, cell-based.
The target of experiment [2] is FAD-linked sulfhydryl oxidase ALR (Homo sapiens, UniProt P55789). The experiment in a line: ALR-catalysed DTT oxidation blockers – biochemical, H2O2 detection, luminescence, cherry-pick, dose response (AID 493248).
In experiment [3] the target is T1, Rac GTPase-activating protein 1 (Homo sapiens, UniProt Q9H0H5).
T1 sequence (Q9H0H5 whole entry): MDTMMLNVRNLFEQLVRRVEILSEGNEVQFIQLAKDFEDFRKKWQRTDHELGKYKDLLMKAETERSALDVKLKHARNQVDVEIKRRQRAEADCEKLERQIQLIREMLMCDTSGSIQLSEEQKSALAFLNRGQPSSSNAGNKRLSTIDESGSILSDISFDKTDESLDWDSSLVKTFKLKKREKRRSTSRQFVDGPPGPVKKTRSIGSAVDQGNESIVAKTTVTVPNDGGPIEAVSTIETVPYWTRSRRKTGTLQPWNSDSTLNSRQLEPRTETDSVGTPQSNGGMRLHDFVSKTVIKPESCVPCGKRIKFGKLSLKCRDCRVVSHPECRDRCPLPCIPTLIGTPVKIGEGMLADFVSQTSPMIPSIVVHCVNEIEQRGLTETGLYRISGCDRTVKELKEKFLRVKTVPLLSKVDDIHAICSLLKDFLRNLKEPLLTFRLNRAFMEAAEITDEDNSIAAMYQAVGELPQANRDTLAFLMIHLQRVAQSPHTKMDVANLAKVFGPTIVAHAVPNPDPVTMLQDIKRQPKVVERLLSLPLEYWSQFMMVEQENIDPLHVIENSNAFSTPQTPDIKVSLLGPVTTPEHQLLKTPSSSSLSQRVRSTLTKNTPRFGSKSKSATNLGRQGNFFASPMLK
Description: blockers of MgcRacGAP-driven Rac1 GTP hydrolysis – biochemical, ADP Hunter fluorescence, primary and confirmatory, confirmation (AID 624330). The experiment is classed as functional.

The nature of experiment [4]: HGIII-sPLA2 enzyme inhibition potency – biochemical, QFRET, IC50, dose response (AID 743457).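 Also: green fluorescence rise as the enzyme cleaves BODIPY PC-A2 in liposomes.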
The target in experiment [5] is T2, Oxysterols receptor LXR-beta (Homo sapiens, UniProt P55055).
T2 sequence (P55055 whole entry): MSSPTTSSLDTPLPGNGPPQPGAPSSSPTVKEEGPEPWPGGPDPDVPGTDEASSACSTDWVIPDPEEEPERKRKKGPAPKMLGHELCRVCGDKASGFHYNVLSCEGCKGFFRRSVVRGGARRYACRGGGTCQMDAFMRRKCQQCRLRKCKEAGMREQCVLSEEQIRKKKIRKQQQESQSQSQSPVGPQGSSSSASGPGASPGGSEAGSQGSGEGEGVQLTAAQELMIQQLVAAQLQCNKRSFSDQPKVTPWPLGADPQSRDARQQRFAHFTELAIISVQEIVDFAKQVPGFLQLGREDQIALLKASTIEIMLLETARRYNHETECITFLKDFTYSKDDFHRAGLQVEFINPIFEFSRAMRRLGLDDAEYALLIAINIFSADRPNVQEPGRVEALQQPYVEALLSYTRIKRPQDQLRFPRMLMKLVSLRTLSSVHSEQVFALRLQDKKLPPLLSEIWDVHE
The experiment is classed as functional, cell-based.

A further experiment deals with Cytochrome P450 2C19 (Homo sapiens, UniProt P33261). Description: Cytochrome panel assay with activity outcomes. Panel member name: p450-cyp2c19 Compounds with AC50 equal or less than 10 uM are considered active. The class given is functional. Conditions: read-out: AC50.
A further experiment deals with fMet-Leu-Phe receptor (Homo sapiens, UniProt P21462). Description: formyl peptide receptor binders – dose response (AID 519). The class given is functional.
The target of the next experiment is T3, Cytochrome P450 1A2 (Homo sapiens, UniProt P05177).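 Also: PubChem cytochrome P450 panel assay, CYP1A2 panel member.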
T3 sequence (P05177 whole entry): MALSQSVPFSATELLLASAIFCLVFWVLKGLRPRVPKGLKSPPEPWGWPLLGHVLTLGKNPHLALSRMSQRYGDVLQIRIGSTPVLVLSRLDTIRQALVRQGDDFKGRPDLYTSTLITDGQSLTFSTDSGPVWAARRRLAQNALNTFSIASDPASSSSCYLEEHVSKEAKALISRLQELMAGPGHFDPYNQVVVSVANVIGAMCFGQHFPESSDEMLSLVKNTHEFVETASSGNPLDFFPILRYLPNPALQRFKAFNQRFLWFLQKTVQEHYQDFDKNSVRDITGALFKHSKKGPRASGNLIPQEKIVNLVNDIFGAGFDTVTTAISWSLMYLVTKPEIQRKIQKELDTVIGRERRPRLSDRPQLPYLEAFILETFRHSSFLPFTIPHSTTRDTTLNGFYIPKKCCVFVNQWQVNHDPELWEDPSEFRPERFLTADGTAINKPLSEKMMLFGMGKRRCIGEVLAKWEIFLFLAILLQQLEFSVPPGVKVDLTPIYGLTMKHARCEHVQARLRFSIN

Another experiment has as its target Cytochrome P450 3A4 (Homo sapiens, UniProt P08684).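 Also: CYP3A4 tested as one member of a cytochrome P450 panel screen.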
A further experiment concerns the target Cytochrome P450 2C9 (Homo sapiens, UniProt P11712).
The target in experiment [6] is T4, Carboxy-terminal domain RNA polymerase II polypeptide A small phosphatase 1 (Homo sapiens, UniProt Q9GZU7).
T4 sequence (Q9GZU7 whole entry): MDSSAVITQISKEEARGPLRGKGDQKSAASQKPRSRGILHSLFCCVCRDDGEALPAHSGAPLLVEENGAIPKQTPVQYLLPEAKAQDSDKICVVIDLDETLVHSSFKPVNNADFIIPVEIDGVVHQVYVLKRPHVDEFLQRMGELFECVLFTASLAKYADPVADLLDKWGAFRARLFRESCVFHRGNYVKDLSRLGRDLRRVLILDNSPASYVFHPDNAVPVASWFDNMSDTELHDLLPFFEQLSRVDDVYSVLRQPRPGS
Description: CTDSP1 inhibitors, concentration-response, biochemical, absorbance readout, ultra-high-throughput screen actives (AID 540297). The experiment is classed as functional.

Experiment [7] deals with Nuclear receptor subfamily 5 group A member 2 (Homo sapiens, UniProt O00482). The class given is functional, cell-based.
In experiment [8] the target is T5, Low molecular weight phosphotyrosine protein phosphatase (Homo sapiens, UniProt P24666).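 Also: Dose-response confirmation assay measuring inhibition of LMPTP enzyme activity by fluorescence intensity read-out.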
T5 sequence (P24666 whole entry): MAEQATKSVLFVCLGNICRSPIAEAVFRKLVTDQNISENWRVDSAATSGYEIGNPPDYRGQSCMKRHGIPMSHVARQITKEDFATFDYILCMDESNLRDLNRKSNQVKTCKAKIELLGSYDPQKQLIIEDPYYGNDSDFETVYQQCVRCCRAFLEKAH
The experiment is classed as functional. Conditions: read-out: IC50_Mean.

The target in the next experiment is Steroidogenic factor 1 (Homo sapiens, UniProt Q13285). Description: Counterscreen for inverse agonists of the liver receptor homolog-1 (LRH-1; NR5A2): Luminescence-based cell-based high throughput dose response assay to identify inverse agonists of the Steroidogenic Factor 1 Nuclear Receptor (SF1; NR5A1). The experiment is classed as functional.
Another experiment has as its target Albumin (Bos taurus, UniProt P02769). The experiment in a line: Counterscreen for inhibitors of T-cell receptor (TCR)-CD3 interaction: Fluorescence-based biochemical high throughput dose response assay to identify inhibitors of T-cell receptor (TCR)-CD3 interaction using a TAMRA-labeled BSA probe. The experiment is classed as functional. A general note: Counterscreens check selectivity or assay interference.

Experiment [9] has as its target T6, DNA repair and recombination protein RAD54-like (Homo sapiens, UniProt Q92698).
T6 sequence (Q92698 whole entry): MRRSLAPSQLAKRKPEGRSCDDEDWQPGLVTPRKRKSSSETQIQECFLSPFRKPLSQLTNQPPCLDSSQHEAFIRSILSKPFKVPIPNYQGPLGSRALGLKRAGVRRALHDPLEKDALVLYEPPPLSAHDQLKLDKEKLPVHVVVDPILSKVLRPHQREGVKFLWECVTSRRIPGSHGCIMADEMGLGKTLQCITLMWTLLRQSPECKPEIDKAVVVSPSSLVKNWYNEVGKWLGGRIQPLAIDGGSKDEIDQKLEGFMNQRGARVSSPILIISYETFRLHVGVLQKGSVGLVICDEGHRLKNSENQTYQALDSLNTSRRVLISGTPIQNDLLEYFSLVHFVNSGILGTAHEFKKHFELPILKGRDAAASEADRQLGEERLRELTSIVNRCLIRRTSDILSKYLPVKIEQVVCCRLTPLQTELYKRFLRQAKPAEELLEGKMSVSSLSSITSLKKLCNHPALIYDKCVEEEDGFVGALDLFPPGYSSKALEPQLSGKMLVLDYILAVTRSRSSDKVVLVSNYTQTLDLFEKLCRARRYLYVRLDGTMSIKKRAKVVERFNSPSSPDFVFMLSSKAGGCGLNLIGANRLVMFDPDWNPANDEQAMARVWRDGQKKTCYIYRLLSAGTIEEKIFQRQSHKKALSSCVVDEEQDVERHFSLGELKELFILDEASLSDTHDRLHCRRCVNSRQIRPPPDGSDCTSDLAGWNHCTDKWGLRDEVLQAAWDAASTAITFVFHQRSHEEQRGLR
Description: RAD54 Holliday junction migration blockers – biochemical, fluorescence, cherry-picked samples, dose series, confirmation (AID 651657). The class given is functional.

Experiment [10] deals with T7, DNA repair protein RAD52 homolog (Homo sapiens, UniProt P43351).
T7 sequence (P43351 whole entry): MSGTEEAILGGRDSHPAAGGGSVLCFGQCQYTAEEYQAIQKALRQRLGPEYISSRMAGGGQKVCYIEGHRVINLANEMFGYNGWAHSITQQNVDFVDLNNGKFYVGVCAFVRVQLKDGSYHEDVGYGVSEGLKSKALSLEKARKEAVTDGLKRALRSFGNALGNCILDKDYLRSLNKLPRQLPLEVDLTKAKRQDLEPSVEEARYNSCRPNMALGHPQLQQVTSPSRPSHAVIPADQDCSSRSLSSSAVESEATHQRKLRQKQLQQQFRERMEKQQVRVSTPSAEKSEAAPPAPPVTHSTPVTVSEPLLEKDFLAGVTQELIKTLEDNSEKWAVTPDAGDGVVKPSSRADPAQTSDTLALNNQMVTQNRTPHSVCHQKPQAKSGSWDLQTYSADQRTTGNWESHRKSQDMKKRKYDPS
The experiment is classed as functional, biochemical.

Experiment [11] concerns the target T2, Oxysterols receptor LXR-beta. The class given is functional, cell-based. The source holds these as a separate data set.
The target in a further experiment is Paired box protein Pax-8 (Homo sapiens, UniProt Q06710). Description: PAX8 transcriptional activity inhibition in RMG-I – RMG-I cells, luciferase, cherry-pick, dose response (AID 687027).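 Also: luciferase reporter driven by Pax8 target thyroperoxidase promoter measured by SteadyGlo luminescence.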 The experiment is classed as functional, cell-based.
A short description of experiment [12]: A2780 cell killing – plate reader, dry powder samples, cytotoxicity control, dose response (AID 743046). The experiment is classed as functional, cell-based.
A short description of experiment [13]: OVCAR-3 cell viability loss – plate reader, dry powder samples, PAX8 inhibitor project, dose response (AID 743044). The experiment is classed as functional, cell-based.
A short description of experiment [14]: OVCAR8 cell viability loss – plate reader, dry powder samples, PAX8 project, dose response (AID 743197). Conditions: OVCAR-8. The class given is functional, cell-based.
A short description of experiment [15]: T. cruzi growth inhibition in host cells, dose response, cell-based, plate reader, dry powder, set 2 (AID 652275). The class given is functional.
Experiment [16] can be described thus: MITF Orthogonal Assay: SK-MEL-5 CTG Assay Measured in Cell-Based System Using Plate Reader - 2084-02_Inhibitor_Dose_DryPowder_Activity_Set7. The experiment is classed as functional.
Experiment [17] is described as follows: MITF: Counter assay: A375 proliferation Measured in Cell-Based System Using Plate Reader - 2084-03_Inhibitor_Dose_DryPowder_Activity_Set8. The class given is functional. Conditions: A-375.

Activity calls are given as the source filed them. Bounds are passed on as bounds.

Sequence of fMet-Leu-Phe receptor (P21462 whole entry): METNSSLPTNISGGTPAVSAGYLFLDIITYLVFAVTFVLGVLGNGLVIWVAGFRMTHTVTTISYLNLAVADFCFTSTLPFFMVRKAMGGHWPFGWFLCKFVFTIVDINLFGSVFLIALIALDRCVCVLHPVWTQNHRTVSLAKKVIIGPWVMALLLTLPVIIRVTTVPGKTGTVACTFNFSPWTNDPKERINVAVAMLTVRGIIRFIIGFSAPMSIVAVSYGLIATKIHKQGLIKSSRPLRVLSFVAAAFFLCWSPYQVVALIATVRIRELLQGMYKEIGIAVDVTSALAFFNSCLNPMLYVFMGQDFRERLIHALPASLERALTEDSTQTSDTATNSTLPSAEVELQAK
Sequence of Steroidogenic factor 1 (Q13285 whole entry): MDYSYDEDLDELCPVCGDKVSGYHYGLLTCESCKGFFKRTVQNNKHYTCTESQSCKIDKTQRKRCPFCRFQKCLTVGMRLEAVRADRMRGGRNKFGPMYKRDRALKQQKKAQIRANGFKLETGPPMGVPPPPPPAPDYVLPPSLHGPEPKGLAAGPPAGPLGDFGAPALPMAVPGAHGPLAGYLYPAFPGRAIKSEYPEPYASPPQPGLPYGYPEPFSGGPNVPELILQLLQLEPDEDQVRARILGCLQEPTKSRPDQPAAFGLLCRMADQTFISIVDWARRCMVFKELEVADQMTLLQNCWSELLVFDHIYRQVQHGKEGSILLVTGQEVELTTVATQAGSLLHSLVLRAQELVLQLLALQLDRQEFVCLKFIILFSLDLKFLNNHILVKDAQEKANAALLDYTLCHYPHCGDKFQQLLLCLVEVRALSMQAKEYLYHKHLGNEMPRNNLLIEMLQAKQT
Sequence of Cytochrome P450 2C9 (P11712 whole entry, the tested form may be a part): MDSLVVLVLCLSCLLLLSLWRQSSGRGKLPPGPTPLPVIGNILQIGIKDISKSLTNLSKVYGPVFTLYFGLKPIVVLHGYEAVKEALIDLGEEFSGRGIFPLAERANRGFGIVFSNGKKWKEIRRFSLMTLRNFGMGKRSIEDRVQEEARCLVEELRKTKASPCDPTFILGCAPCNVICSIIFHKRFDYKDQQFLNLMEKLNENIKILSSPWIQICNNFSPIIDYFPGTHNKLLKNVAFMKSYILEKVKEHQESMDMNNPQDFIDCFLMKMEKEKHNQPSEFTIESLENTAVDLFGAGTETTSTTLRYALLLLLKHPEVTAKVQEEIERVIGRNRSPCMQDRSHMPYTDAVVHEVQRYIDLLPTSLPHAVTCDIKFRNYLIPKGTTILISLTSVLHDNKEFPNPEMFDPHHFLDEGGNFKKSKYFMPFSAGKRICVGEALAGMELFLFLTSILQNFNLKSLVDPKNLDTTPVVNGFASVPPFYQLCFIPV
Sequence of Albumin (P02769 whole entry): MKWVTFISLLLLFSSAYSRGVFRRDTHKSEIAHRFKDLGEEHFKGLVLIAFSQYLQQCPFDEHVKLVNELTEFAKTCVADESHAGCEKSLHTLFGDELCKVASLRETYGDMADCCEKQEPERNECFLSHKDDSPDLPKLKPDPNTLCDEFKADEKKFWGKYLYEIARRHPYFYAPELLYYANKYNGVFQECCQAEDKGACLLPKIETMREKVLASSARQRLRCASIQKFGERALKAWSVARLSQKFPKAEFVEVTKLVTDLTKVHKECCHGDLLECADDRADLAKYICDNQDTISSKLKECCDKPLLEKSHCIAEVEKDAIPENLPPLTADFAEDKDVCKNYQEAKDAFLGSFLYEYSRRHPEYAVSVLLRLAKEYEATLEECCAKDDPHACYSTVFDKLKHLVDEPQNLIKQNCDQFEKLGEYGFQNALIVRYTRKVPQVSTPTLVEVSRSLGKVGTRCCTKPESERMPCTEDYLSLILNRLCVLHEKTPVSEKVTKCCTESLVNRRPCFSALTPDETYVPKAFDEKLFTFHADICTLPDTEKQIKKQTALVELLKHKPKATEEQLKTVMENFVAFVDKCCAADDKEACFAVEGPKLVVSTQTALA
Sequence of FAD-linked sulfhydryl oxidase ALR (P55789 whole entry): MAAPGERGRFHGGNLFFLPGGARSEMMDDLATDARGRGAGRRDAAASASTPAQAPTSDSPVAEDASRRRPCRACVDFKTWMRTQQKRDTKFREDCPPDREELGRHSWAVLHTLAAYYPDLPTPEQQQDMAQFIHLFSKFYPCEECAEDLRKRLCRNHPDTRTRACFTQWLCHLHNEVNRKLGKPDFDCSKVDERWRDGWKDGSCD
Sequence of Paired box protein Pax-8 (Q06710 whole entry): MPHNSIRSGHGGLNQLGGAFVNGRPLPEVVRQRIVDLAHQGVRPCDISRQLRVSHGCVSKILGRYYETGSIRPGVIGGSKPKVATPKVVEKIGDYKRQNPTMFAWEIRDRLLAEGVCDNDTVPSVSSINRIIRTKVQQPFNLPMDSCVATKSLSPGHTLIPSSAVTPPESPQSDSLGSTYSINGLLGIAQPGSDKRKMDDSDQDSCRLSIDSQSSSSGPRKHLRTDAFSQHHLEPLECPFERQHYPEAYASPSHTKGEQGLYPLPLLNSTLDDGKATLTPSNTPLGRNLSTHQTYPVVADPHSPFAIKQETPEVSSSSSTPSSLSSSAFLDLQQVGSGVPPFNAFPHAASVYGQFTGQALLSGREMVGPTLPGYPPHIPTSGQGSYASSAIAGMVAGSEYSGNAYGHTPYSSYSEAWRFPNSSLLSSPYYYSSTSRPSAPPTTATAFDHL
Sequence of Nuclear receptor subfamily 5 group A member 2 (O00482 whole entry): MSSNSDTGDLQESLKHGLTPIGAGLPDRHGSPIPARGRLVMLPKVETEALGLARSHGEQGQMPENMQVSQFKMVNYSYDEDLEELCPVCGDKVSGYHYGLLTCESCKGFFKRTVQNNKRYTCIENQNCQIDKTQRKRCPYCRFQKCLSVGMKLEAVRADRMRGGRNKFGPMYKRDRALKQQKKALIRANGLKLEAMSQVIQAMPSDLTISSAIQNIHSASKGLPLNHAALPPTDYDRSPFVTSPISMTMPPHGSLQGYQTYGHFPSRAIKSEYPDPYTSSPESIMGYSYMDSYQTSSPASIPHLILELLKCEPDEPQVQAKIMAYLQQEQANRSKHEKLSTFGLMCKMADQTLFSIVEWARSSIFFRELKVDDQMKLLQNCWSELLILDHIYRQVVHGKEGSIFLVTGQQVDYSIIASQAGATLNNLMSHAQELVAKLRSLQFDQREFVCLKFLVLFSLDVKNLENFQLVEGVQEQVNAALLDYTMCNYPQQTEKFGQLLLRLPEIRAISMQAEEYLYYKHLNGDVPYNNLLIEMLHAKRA
Sequence of Cytochrome P450 3A4 (P08684 whole entry): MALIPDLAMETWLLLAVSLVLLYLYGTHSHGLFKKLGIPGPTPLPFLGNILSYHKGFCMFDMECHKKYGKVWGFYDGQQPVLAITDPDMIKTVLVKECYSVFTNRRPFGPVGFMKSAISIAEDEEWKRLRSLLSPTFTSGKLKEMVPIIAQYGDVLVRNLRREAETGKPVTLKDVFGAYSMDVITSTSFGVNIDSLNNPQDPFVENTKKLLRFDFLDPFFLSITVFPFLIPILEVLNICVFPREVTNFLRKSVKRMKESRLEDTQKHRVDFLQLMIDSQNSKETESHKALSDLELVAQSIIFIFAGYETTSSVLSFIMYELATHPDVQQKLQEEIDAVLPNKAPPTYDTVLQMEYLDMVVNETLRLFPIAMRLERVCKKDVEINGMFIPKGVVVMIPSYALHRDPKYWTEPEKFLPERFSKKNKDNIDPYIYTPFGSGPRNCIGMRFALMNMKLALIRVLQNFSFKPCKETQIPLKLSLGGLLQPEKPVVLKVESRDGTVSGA
Sequence of Cytochrome P450 2C19 (P33261 whole entry): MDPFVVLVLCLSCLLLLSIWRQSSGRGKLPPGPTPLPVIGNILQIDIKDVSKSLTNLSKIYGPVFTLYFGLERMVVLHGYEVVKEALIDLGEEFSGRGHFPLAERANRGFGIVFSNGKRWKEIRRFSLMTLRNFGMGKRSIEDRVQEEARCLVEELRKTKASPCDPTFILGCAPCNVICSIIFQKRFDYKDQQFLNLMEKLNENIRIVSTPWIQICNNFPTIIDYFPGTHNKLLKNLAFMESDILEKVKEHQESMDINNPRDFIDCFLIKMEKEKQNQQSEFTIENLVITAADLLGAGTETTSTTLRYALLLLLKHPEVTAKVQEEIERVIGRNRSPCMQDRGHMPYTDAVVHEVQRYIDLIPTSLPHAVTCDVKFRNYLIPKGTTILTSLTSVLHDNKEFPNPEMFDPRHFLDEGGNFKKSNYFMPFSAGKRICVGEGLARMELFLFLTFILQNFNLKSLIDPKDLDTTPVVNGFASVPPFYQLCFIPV

Turning to `CCOc1ccc(C(CCc2ccccc2)NC(=O)c2ccccc2F)cc1OCC` (stereo not drawn), the AC50 in experiment [1] is 4.56 µM (active).

For the molecule `O=C(Nc1ccc(N2CCCCCC2)cc1)c1ccc[nH]1`, the AC50 in [2] was 0.42 µM (active). For the same molecule, the IC50 in experiment [3] was 34 µM (active); in [4], 100 µM (inactive).

As to `O=c1c2ccccc2cnn1-c1ccc(Cl)cc1`, the EC50 (in experiment [5]; in the experiment “cells”) was > 67.5 µM (inactive) in each case.

For `COc1cc(C2C(C(=O)c3cccs3)=C(O)C(=O)N2Cc2ccco2)cc(OC)c1OC` (stereo not drawn), the AC50 was 14.1 µM (inconclusive) on Cytochrome P450 2C19, 17.8 µM (inconclusive) on Cytochrome P450 1A2, 25.1 µM (inconclusive) at Cytochrome P450 3A4 and 25.1 µM (inconclusive) on Cytochrome P450 2C9. The Ki at fMet-Leu-Phe receptor is 27 µM (inactive).

On to `COc1ccc(NC(=O)CSc2sc3c(O)cc(=O)[nH]c3c2C#N)c(OC)c1`, for which the IC50 in [6] was 4.21 µM (active); in experiment [7], 20.2 µM (inactive); in experiment [8], 26 µM (inactive); on Steroidogenic factor 1, 13 µM (inactive); at Albumin it was > 94.1 µM (inactive).

For `Cc1c(CNCc2cccs2)c(C(=O)O)c(C)n1Cc1ccccc1`, at fMet-Leu-Phe receptor, the Ki was > 66.7 µM (inactive).

As for `COc1ccc2oc3cc(NCCN(C)C)ccc3c(=O)c2c1`, the AC50 in experiment [9] was 7.73 µM (active); in [10] it was 5.46 µM (active). Further, in experiment [11], the EC50 was > 67.5 µM (inactive).

In the case of `COc1ccc(S(=O)(=O)N2CCCCN3[C@H](CO)[C@@H](c4ccc(C#CC(C)C)cc4)[C@H]3C2)cc1`, the AC50 at Paired box protein Pax-8 was 12 µM (active); in [12], 27.1 µM (active); in [13], 34 µM (active); in experiment [14], > 70 µM (inactive).

Turning to `CC(C)N1CC2(CN(Cc3ccccn3)C2)Oc2c(NC(=O)c3ccncc3)cccc2C1=O`, the AC50 in [15] was 1.37 µM (active).

Turning to `O=C1C=C(NC2CCCCC2)C(=O)c2ccccc21`, the concentration at half-maximal activity (AC50) in [16] is 18.9 µM (active); in experiment [17], > 70 µM (inactive).

In the case of `COCCNC(=O)c1cc2c(c(-c3cccc(C#CCN(C)C)c3)n1)[C@@H](CCO)N([S+]([O-])C(C)(C)C)C2` (stereo partly drawn), in [15], the AC50 was 4.21 µM (active).

In general, AC50 refers to the midpoint of the concentration-response curve, whichever way the signal moves. One may read the EC50 as the concentration that produces a half-maximal response. As a reminder, the Ki is a dissociation constant, usually derived from enzyme kinetics or from competition with a known ligand.

Source of the values: ChEMBL document CHEMBL1201862, “PubChem BioAssay data set” (2004).
